# Earlier results, collected in patent US20100048608A1, “Histone Deacetylase Inhibitors for the Treatment of Ocular Neovascular or Edematous Disorders and Diseases” (ALCON, INC., priority 2002, published 2010).
# Experiments:
# [1] = test system: corneal neovascularization; details: in combination with a beta cyclodextrin; Li et al. 1991
# [2] = phase I clinical trials; Kelly et al. 2001
# [3] = test system: cancer cell; details: Munster et al. 2001
# [4] = test system: tumors; details: Butler et al. 2000
# [5] = test system: cancer cell; details: Butler et al. 2002
smiles,measurement,setting,value
C[C@]12CCC(=O)C=C1CC[C@@H]1[C@@H]2[C@@H](O)C[C@@]2(C)[C@H]1CC[C@]2(O)C(=O)CO [hydrocortisone],inhibition of corneal neovascularization,[1],inhibit corneal neovascularization
C[C@]12CC[C@@H](O)C[C@H]1CC[C@@H]1[C@@H]2CC[C@@]2(C)[C@H]1CC[C@]2(O)C(=O)CO [tetrahydrocortisol-S],inhibition of corneal neovascularization,[1],inhibit corneal neovascularization
"C[C@@H]1C[C@H]2[C@@H]3C[C@H](F)C4=CC(=O)CC[C@]4(C)C3=CC[C@]2(C)[C@@]1(O)C(=O)CO [U-72,745G]",inhibition of corneal neovascularization,[1],inhibit corneal neovascularization
"O=C(CCCCCCC(=O)Nc1ccccc1)NO [SAHA, suberoylanilide hydroxamic acid]",dose-limiting toxicity,[2],almost no dose-limiting toxicity
same,suppression of white blood cell production,[2],no suppression of white blood cell production
same,induction of cancer cell differentiation,[3],potent inducer of cancer cell differentiation
same,effect on tumors in animal models,[4],shrink tumors in animal models
same,cancer cell growth in vitro,[5],arrest cancer cell growth in vitro
